We go through 1 compound from patent US20090061513A1, “Cell sorting and cell cultivation methods” (PicoVitro AB, priority 2007, published 2009).

This assay has as its system doxorubicin resistant sub line RPMI8226Dox40. Kind of assay: Single cell seeding and cultivation in microplate with doxorubicin-spiked growth medium (drug resistance screening), resistant cells. Particulars: 6 days of incubation, resistant vs sensitive cells. The format is cell-based, human. As for the experimental part: The clean plates and semi-permeable top membranes were autoclaved for 20 min at 121° C. to obtain a sterile cell culture environment. An excess of recommended growth medium was added to the plate, and manually distributed evenly to all wells by an autoclaved hand scraper (VWR) or sterile cell scrapers (Falcon, for one-time use only). Then, automatic single cell seeding into predefined wells of the microplate was carried out using the FACS. A motorized x/y-stage combined with the software CloneCyt Plus (BD Biosciences) was used to control the exact position of every cell sorted in the plate. Selection of the cells to be seeded was performed based on their individual FSC/SSC (forward scatter/side scatter) properties (i.e. size and granularity). The cells were analyzed at a rate of approximately 100 cells/s. A representative set of cells was sought, meaning that all viable cells in the sample were selected for seeding into the plate. The cells were sorted directly from recommended growth medium in concentrations ranging from 10^5-10^6 cells/ml. FACS Clean solution (BD Biosciences) was let through the fluidics of the FACS prior to experiments to obtain sterility. The x/y-stage and the surrounding of the fluidics outlet was cleaned with 70% EtOH. During analysis, sterile 0.25×PBS was used as sheath buffer. […]

With `COc1cccc2c1C(=O)c1c(O)c3c(c(O)c1C2=O)C[C@@](O)(C(=O)CO)C[C@@H]3O[C@H]1C[C@H](N)[C@H](O)[C@H](C)O1` [Doxorubicin, doxorubicin], the “Proliferation at higher drug concentrations” value is “only resistant cells can proliferate at higher drug concentrations”.
